pEC50: −log10 of the molar value. Several values for one entry are separate records, joined by “and”; a condition that tells them apart may be missing. Equal values may be shown once.
How the values were obtained:
RhlR [1] = molecular target: T1, RhlR (Pseudomonas aeruginosa, UniProt P54292); experiment: E. coli RhlR reporter agonism assay; type: cell-based, P. aeruginosa; conditions: for % activation: compounds screened at 10 μM, RhlR activity relative to BHL at 1 mM, E. coli reporter; for fold more potent than BHL (RhlR agonism potency): EC50 relative to BHL; for pEC50: read-out: EC50 (RhlR agonism, E. coli), E. coli RhlR reporter, dose-response
T1 sequence (P54292 whole entry): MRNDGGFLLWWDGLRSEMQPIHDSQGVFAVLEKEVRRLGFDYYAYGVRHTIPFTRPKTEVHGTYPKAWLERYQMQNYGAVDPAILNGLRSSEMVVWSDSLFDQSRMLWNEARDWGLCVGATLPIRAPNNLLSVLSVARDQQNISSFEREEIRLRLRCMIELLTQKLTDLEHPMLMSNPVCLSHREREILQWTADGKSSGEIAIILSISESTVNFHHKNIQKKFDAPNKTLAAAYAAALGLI

RhlR [2] = molecular target: T1, RhlR; experiment: P. aeruginosa PAO-JP2; type: cell-based; conditions: read-out: EC50 (RhlR agonism, P. aeruginosa); P. aeruginosa PAO-JP2 prhlI-LVAgfp; in the presence of 100 nM OdDHL
LasR = LasR (Pseudomonas aeruginosa, UniProt P25084); experiment: E. coli LasR reporter antagonism assay; type: cell-based, P. aeruginosa; conditions: compounds at 1 mM, versus 2 nM OdDHL (Table S3)
Sequence of LasR (P25084 whole entry): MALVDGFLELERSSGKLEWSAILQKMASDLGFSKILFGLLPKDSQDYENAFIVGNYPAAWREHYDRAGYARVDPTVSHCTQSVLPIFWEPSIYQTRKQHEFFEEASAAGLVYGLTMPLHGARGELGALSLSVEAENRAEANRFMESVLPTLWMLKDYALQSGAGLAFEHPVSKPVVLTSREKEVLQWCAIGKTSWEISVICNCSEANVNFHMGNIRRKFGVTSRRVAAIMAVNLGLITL

RhlR [3] = molecular target: T1, RhlR; experiment: E. coli RhlR reporter competitive antagonism assay versus 10 μM BHL; type: cell-based, P. aeruginosa; conditions: compounds screened at 1 mM in the presence of 10 μM BHL, relative to activation of 10 μM BHL alone

| Compound | % activation (RhlR [1]) | pEC50 (RhlR [1]) | pEC50 (RhlR [2]) | further results |
| --- | --- | --- | --- | --- |
| CCCC(=O)N[C@H]1CCNC1=O [Compound 27] | 1% | – | – | – |
| CCCC(=O)NC1CCOC1 (stereo not shown) [Compound 30] | 0% | – | – | – |
| CC(C)CC(=O)N[C@H]1CCOC1=O [Compound 7, isovaleryl HL] | 86% | 5.99 | 5.85 | fold more potent than BHL (RhlR agonism potency) (RhlR [1]): ~10 fold; LasR antagonism (% inhibition) (LasR): > 70% |
| cyclopropyl HL [Compound 18] | 32% | – | – | – |
| propyl HL [Compound 4] | 25% | – | – | – |
| cyclopentyl HL [Compound 3, reference compound] | 76% | 5.80 | 5.91 | – |
| 1-methyl-cyclopropanoyl HL [Compound 20] | – | – | – | % inhibition (RhlR [3]): 24% |
| O=C(NC1CCOC1=O)C1CCC1 (stereo not shown) [Compound 17, cyclobutanoyl HL] | 79% | 5.75 | 5.85 | fold more potent than BHL (RhlR agonism potency) (RhlR [1]): ~10 fold; LasR antagonism (% inhibition) (LasR): > 70% |
| CCC(C)C(=O)NC1CCOC1=O (stereo not shown) [Compound 8, 2-methylbutanoyl HL] | 55% | 5.11 | – | – |
| CCCC(=O)NC1CCCC1=O (stereo not shown) [Compound 28] | 35% | 4.56 | 4.84 | fold less active than BHL (RhlR agonism potency) (RhlR [1]; E. coli reporter EC50 relative to BHL, p < 0.05): under 3 fold |
| CCCC(=O)NC1CCSC1=O (stereo not shown) [Compound 26] | 71% | 5.31 | 5.42 | – |
| Butenyl HL [Compound 14] | – | 5.16 | – | – |
| CCCC(=O)N[C@H]1CCOC1=O [Compound 1, N-butanoyl-L-homoserine lactone, reference compound] | 51% | – | – | pEC50 (RhlR [1]; listed as 1 (BHL)): 5.05; pEC50 (RhlR [1]; listed as BHL): ~5.00 and ~5.05; LasR antagonism (% inhibition) (LasR): antagonize |
| pentenyl HL [Compound 2, reference compound] | 54% | 5.10 | – | – |
| CCCC(=O)N[C@@H]1CCOC1=O [Compound 25, D-BHL] | 2% | – | – | RhlR agonism at 1 mM (RhlR [1]; compound at 1 mM, E. coli reporter (Table S2)): marginal activity; % inhibition (RhlR [3]): 11% |

From publication PMC6200399 (ACS chemical biology, 2018)
